Drawing on BindingDB's records for doi:10.1021/jm990599h (National Institute of Diabetes and Digestive and Kidney …, 2000), this text covers Ki for three molecules.

Beta-2 adrenergic receptor (Rattus norvegicus), sequence (P10608 whole entry, looked up): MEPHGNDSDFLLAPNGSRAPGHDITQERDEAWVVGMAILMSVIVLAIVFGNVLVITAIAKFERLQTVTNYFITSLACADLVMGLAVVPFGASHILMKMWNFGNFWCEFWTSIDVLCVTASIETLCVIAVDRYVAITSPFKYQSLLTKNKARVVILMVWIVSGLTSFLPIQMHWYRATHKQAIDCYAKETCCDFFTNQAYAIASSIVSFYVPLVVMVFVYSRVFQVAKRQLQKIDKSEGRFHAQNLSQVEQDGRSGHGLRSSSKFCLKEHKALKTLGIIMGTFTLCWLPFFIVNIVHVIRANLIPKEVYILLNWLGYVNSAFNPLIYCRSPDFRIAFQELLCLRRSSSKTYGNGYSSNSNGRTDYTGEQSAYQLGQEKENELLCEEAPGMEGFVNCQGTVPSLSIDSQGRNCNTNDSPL

The test has as its target Beta-2 adrenergic receptor (Rattus norvegicus) (UniProt P10608). As to the kind of experiment: Binding of [3H]dihydroalprenolol to beta-2 adrenergic receptor of rat cerebellar membranes.
On to `NCCc1ccc(O)c(O)c1`, for which the Ki came to 50 µM. The molecule `CNC[C@H](O)c1cc(O)c(O)cc1F` [(R)4-Fluoro-5-(1-hydroxy-2-methylamino-ethyl)-benzene-1,2-diol] registered a Ki of 38 µM.

On to `CNCC(O)c1cc(O)c(O)cc1F` (stereo not drawn) [(+/-)4-Fluoro-5-(1-hydroxy-2-methylamino-ethyl)-benzene-1,2-diol], for which the affinity corresponds to a Ki of 50 µM.
